Values after ≈ are worked out from the molar mass of the structure shown.
Key:
[1] = system: vesicular stomatitis virus (VSV) New Jersey strain; test: microbe, parasite or virus in culture; format: cell-based; conditions: for IC50: Vesicular stomatitis virus, L929, 48 h, read-out: Inhibitory Concentration (IC50) which inhibited by 50% the denaturation of Virus No. 3 infested L-929 cell; for Quotient of minimum denaturation concentration divided by IC50, Virus No. 3: figures in brackets, L-929 cell, VSV, 2880 min
[2] = system: Newcastle disease virus (NDV) Miyadera strain; test: microbe, parasite or virus in culture; format: cell-based; conditions: for IC50: avian paramyxovirus 1, 48 h, read-out: Inhibitory Concentration (IC50) which inhibited by 50% the denaturation of Virus No. 2 infested HeLa-Y cell; for Quotient of minimum denaturation concentration divided by IC50, Virus No. 2: figures in brackets, HeLa-Y cell, NDV, 2880 min
[3] = in vitro; conditions: mouse, l-929 cells
[4] = system: human premyelocytic leukemia cells (HL-60); test: NBT-reducing ability (differentiation) of HL-60 cells after treatment with test compound; format: cell-based; conditions: 0.1% NBT, 37° C., 20 minutes
Description: (§1) The human premyelocytic elukemia cells (HL-60 cell) are characterized by the ability to respond to pharmacological inducers of differentiation and can produce the normal granulocytes when they have been differentiated, as described in the "Blood" Vol. 54, No. 3, 713-733 (1979).
(§2) Thus, firstly the cell differentiation-inducing activity of the compound was assayed by the following procedure described in said "Blood". Namely, HL-60 cells were incubated by passing successively through RPMI 1640 media supplemented with 10% FCS (fetal calf serum), followed by adding the test compound at varying concentrations to aliquots of the culture of the HL-60 cells at the logarithmic phase of growth. The HL-60 cells thus incubated were further incubated in the presence of the test compound for 6 days and subsequently fixed to slide glasses. The fixed HL-60 cells were stained with May-Gruenwald-Giemsa's reagent and the morphology of the nuclei in the stained cells was examined to judge which of the cells has been differentiated into the normal granulocytes. Then, the number of the HL-60 cells which had propagated were counted.
Secondly, the another aliquot of the culture of the HL-60 cells which were incubated in the above procedure in the presence of the test compound at its evaluated "IC50 " concentration was centrifuged to collect the cells, which were then diluted with a volume of RPMI 1640 medium supplemented with 10% FCS, to provide a given concentration of the cells. Subsequently, the cells which were diluted with said medium were added and mixed with 0.1% of NBT and then incubated at 37° C. for 20 minutes. The number of the cells which stained black color owing to the involved reduction of NBT and which could be judged to have the ability to reduce NBT was counted.

[5] = system: Influenza virus A/PR/8/34 strain; test: Antiviral activity, Virus No. 1 infested MDCK cell; format: cell-based; conditions: for IC50: PR/8, MDCK, 48 h, read-out: Inhibitory Concentration (IC50) which inhibited by 50% the denaturation of Virus No. 1 infested MDCK cell; for Quotient of minimum denaturation concentration divided by IC50, Virus No. 1: figures in brackets, MDCK cell, Influenza virus, 2880 min
[6] = system: Vaccinia virus Lister strain; test: organism not typed; format: cell-based; conditions: for IC50: 48 h, read-out: Inhibitory Concentration (IC50) which inhibited by 50% the denaturation of Virus No. 4 infested HeLa-Y cell; for Quotient of minimum denaturation concentration divided by IC50, Virus No. 4: figures in brackets, HeLa-Y cell, Vaccinia virus, 2880 min
[7] = in vitro; conditions: monkey, vero cells
[8] = system: Herpes simplex virus (HSV) Type 2 196 strain; test: Antiviral activity, Virus No. 5 infested Vero cell; format: cell-based; conditions: for IC50: 48 h, HSV Type 2, Vero cell, read-out: Inhibitory Concentration (IC50) which inhibited by 50% the denaturation of Virus No. 5 infested Vello cell; for Quotient of minimum denaturation concentration divided by IC50, Virus No. 5: figures in brackets, Vero cell, HSV Type 2
[9] = in vitro; conditions: human, hela-y cells
[10] = in vitro; conditions: dog, mdck
[11] = system: human premyelocytic leukemia cells (HL-60); test: 50% inhibition of propagation of undifferentiated human premyelocytic leukemia HL-60 cells; format: cell-based; conditions: 144 h, 6 days incubation, read-out: Activity of test compound to inhibit by 50% the undifferentiated propagation of HL-60 cells (IC50)
Description: as §1, §2
As said "IC50 " concentration of the test compound was assumed such concentration of the test compound at which the counted number of the HL-60 cells having propagated was reduced by 50%, as compared to that counted in the control tests where the test compound was not used.

| Compound | IC50 [1] [µg/mL] | Quotient of minimum denaturation concentration divided by IC50, Virus No. 3 [1] | IC50 [2] [µg/mL] | MCC at 48 h [3] [µg/mL] | Percent of the number of the cells showing the NBT-reducing ability after treatment with test compound at IC50 concentration [4] [%] | IC50 [5] [µg/mL] | Quotient of minimum denaturation concentration divided by IC50, Virus No. 1 [5] | IC50 [6] [µg/mL] | MCC at 48 h [7] [µg/mL] | IC50 [8] [µg/mL] | Quotient of minimum denaturation concentration divided by IC50, Virus No. 5 [8] | MCC at 48 h [9] [µg/mL] | MCC at 48 h [10] [µg/mL] | IC50 [11] [µg/mL] | Quotient of minimum denaturation concentration divided by IC50, Virus No. 2 [2] | Quotient of minimum denaturation concentration divided by IC50, Virus No. 4 [6] |
| --- | --- | --- | --- | --- | --- | --- | --- | --- | --- | --- | --- | --- | --- | --- | --- | --- |
| CC1(C)O[C@@H]2[C@H](O1)[C@@H](CO)O[C@H]2N1C(=O)NC(=O)C2C1C(C)(C)C2(C)C (stereo partly drawn) [TI-28 Substance, 7,7,8,8-tetramethyl-2-(2',3'-isopropylidene-ribofuranosyl)-cis-2,4-diaza-bicyclo{4.2.0}octane-3,5-dione] | 1000 (≈ 2710 µM) | 1.0 | > 1000 | > 1000 | 37 | 750 (≈ 2040 µM) | 1.33 | > 1000 | > 1000 | > 1000 | < 1.0 | > 1000 | 1000 | 62.5 (≈ 170 µM) |  |  |
| CN1C(=O)NC2C(C)(C)C(C)(C)C2(F)C1=O (stereo not drawn) [TI-61 Substance, 6-fluoro-4,7,7,8,8-pentamethyl-2,4-diaza-bicyclo{4.2.0}octane-3,5-dione] | 93.8 (≈ 411 µM) | 1.33 | > 125 | 125 | 18 | 188 (≈ 824 µM) | 1.33 | > 125 | 125 | 93.8 (≈ 411 µM) | 1.33 | 125 | 250 | 39 (≈ 171 µM) | < 1.00 | < 1.00 |
| CCN1C(=O)NC(=O)C2(F)C1C(C)(C)C2(C)C (stereo not drawn) [TI-62 Substance, 2-ethyl-6-fluoro-7,7,8,8-tetramethyl-2,4-diaza-bicyclo{4.3.0}octane-3,5-dione] | > 125 | < 2.00 | > 250 | 250 | 34 | > 500 | < 2.00 | > 250 | 500 | > 250 | < 2.00 | 250 | 1000 | 9 (≈ 37.1 µM) | < 1.00 | < 1.00 |
| CCN1C(=O)N(CC)C2C(C)(C)C(C)(C)C2(F)C1=O (stereo not drawn) [TI-65 Substance, 2,4-diethyl-6-fluoro-7,7,8,8-tetramethyl-2,4-diaza-bicyclo{4.2.0}octane-3,5-dione] | > 125 | < 2.00 | > 250 | 250 | 20 | 375 (≈ 1390 µM) | 2.67 | > 250 | 500 | 188 (≈ 695 µM) | 2.66 | 250 | 1000 | 36 (≈ 133 µM) | < 1.00 | < 1.00 |
| CC1(C)C2N(Cc3ccccc3)C(=O)N(Cc3ccccc3)C(=O)C2(F)C1(C)C (stereo not drawn) [TI-66 Substance, 2,4-dibenzyl-6-fluoro-7,7,8,8-tetramethyl-2,4-diaza-bicyclo{4.2.0}octane-3,5-dione] | 18.8 (≈ 47.7 µM) | 0.83 | > 25 | 15.6 | 65 | > 200 | < 1.25 | > 25 | 62.5 | > 100 | < 0.63 | 15.6 | 250 | 7 (≈ 17.7 µM) | < 0.62 | < 0.62 |

— US4939156A (priority 1987, dated 1990)
